According to publication doi:10.1101/2025.02.11.637513v1 (bioRxiv, 2025):
Several values for one entry are separate records, joined by “and”; a condition that tells them apart may be missing. Equal entries are not always repeated. Non-standard residues stand in square brackets, D forms with d. No end group written: not given here. Phe(F5) = N[C@@H](Cc1c(F)c(F)c(F)c(F)c1F)C(=O)O; Bip = N[C@@H](Cc1ccc(-c2ccccc2)cc1)C(=O)O; Phe(2-Cl) = N[C@@H](Cc1ccccc1Cl)C(=O)O; Tic = O=C(O)[C@@H]1Cc2ccccc2CN1; Cha = N[C@@H](CC1CCCCC1)C(=O)O; Tle = CC(C)(C)[C@H](N)C(=O)O

How the values were obtained:
Assay in all cases: tetrapeptide-ACC substrate cleavage kinetics
Type in all cases: biochemical
[1] = molecular target: T1, human caspase-9 (Homo sapiens, UniProt P55211); conditions: Ac-P4-P3-P2-Asp-ACC substrate, 0.05-500 μM, 20-150 nM enzyme, 37°C, triplicate
T1 sequence (P55211 1-315 limits assumed): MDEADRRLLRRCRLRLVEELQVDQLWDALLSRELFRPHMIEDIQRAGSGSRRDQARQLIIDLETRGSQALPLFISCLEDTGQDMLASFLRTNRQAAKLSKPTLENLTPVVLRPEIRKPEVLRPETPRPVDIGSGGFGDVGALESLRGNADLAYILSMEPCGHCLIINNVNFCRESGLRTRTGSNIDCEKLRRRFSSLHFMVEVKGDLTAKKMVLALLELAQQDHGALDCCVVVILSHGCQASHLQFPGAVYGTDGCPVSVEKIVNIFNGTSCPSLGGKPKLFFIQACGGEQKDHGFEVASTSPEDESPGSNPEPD
T1 sequence (P55211 331-416 limits assumed): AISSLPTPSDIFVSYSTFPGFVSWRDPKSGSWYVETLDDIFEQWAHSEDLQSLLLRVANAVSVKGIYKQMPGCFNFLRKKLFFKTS

[2] = molecular target: human caspase-8 (Homo sapiens, UniProt Q14790); conditions: Ac-P4-P3-P2-Asp-ACC substrate, 0.05-500 μM, 6-42 nM enzyme, 37°C, triplicate
[3] = molecular target: T2, human caspase-3 (Homo sapiens, UniProt P42574); conditions: Ac-P4-P3-P2-Asp-ACC substrate, 0.05-500 μM, 3-35 nM enzyme, 37°C, triplicate
T2 sequence (P42574 29-175 limits assumed): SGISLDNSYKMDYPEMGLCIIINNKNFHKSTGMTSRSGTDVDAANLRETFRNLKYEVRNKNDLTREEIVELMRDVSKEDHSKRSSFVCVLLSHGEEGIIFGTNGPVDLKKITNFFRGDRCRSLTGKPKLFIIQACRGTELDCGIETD
T2 sequence (P42574 176-277 limits assumed): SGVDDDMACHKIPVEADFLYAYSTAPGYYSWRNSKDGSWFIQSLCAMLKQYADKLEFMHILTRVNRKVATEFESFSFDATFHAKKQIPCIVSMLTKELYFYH

[4] = molecular target: T3, human caspase-4 (Homo sapiens, UniProt P49662); conditions: Ac-P4-P3-P2-Asp-ACC substrate, 0.05-500 μM, 35-200 nM enzyme, 37°C, triplicate
T3 sequence (P49662 81-270 limits assumed): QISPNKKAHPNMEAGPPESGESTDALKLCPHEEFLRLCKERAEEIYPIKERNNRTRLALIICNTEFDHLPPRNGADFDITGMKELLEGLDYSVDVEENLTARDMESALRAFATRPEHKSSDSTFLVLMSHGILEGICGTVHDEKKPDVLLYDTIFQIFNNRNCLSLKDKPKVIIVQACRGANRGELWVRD
T3 sequence (P49662 290-377 limits assumed): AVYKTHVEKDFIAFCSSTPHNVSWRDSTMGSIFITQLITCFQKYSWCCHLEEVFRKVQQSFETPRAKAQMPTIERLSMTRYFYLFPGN

[5] = molecular target: T4, human caspase-5 (Homo sapiens, UniProt P51878); conditions: Ac-P4-P3-P2-Asp-ACC substrate, 0.05-500 μM, 20-250 nM enzyme, 37°C, triplicate
T4 sequence (P51878 137-327 limits assumed): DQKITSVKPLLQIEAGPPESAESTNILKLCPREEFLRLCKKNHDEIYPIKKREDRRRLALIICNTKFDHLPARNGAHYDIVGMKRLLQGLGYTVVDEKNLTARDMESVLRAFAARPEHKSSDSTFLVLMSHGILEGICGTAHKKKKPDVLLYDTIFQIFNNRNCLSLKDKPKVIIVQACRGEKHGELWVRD
T4 sequence (P51878 347-434 limits assumed): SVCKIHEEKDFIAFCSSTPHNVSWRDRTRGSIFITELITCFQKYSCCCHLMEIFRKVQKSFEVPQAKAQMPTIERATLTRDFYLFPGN

[6] = molecular target: T5, human caspase-1 (Homo sapiens, UniProt P29466); conditions: Ac-P4-P3-P2-Asp-ACC substrate, 0.05-500 μM, 2-15 nM enzyme, 37°C, triplicate
T5 sequence (P29466 120-297 limits assumed): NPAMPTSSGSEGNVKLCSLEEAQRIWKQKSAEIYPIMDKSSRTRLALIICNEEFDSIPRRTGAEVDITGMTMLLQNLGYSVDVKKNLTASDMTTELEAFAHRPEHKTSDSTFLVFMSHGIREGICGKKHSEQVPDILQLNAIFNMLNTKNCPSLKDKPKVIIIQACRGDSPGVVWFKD
T5 sequence (P29466 317-404 limits assumed): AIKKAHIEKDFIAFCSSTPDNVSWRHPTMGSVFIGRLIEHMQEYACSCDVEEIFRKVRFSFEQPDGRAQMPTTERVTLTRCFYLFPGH

[7] = molecular target: T6, human caspase-7 (Homo sapiens, UniProt P55210); conditions: Ac-P4-P3-P2-Asp-ACC substrate, 0.05-500 μM, 40-400 nM enzyme, 37°C, triplicate
T6 sequence (P55210 24-198 limits assumed): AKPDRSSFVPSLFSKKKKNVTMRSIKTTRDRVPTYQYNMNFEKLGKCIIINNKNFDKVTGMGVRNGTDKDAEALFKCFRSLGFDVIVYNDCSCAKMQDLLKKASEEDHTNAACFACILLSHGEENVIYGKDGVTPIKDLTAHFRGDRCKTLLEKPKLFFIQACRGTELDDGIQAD
T6 sequence (P55210 207-303 limits assumed): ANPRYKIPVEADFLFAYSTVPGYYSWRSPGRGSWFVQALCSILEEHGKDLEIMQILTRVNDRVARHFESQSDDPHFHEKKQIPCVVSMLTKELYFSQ

Sequence of human caspase-8 (Q14790 217-374 limits assumed): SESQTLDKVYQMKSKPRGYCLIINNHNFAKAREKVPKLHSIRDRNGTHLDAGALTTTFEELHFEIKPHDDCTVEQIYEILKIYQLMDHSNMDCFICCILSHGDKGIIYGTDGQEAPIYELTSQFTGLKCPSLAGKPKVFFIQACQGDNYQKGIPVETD
Sequence of human caspase-8 (Q14790 385-479 limits assumed): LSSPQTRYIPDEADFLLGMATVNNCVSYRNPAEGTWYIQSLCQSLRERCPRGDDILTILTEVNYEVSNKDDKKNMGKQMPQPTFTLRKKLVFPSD

Substance | kcat/KM caspase-9 [1] | kcat/KM caspase-8 [2] | kcat/KM caspase-3 [3] | kcat/KM caspase-4 [4] | kcat/KM caspase-5 [5] | kcat/KM caspase-1 [6] | kcat/KM caspase-7 [7]
Trp-Gln-Val-Asp | 220 M⁻¹ s⁻¹ | 3 870 M^-1s^-1 | 12 140 M^-1s^-1 | 4 300 M^-1s^-1 | 5 100 M^-1s^-1 | 124 800 M^-1s^-1 | 100 M⁻¹ s⁻¹
Tyr-Val-His-Asp | 15 800 M^-1s^-1 | 2 550 M^-1s^-1 | 1 530 M^-1s^-1 | 2 920 M^-1s^-1 | 9 640 M^-1s^-1 | 140 500 M^-1s^-1 | 150 M⁻¹ s⁻¹
Val-Gly-His-Asp | 3 800 M^-1s^-1 | 1 110 M^-1s^-1 | 7 360 M^-1s^-1 | 480 M⁻¹ s⁻¹ | 390 M⁻¹ s⁻¹ | 2 000 M^-1s^-1 | 90 M⁻¹ s⁻¹
[Cha]E[Tic]D | 7 760 M^-1s^-1 | 7 860 M^-1s^-1 | 10 440 M^-1s^-1 | 37 900 M^-1s^-1 | 28 860 M^-1s^-1 | 159 100 M^-1s^-1 | 950 M⁻¹ s⁻¹
Leu-Glu-Ser-Asp | 3550 M⁻¹ s⁻¹ | 19 200 M^-1s^-1 | 950 M⁻¹ s⁻¹ | 3 390 M^-1s^-1 | 13500 M⁻¹ s⁻¹ | 20 000 M^-1s^-1 | 20 M⁻¹ s⁻¹
W(Me)Q[Tic]D | 1 140 M^-1s^-1 | 2 580 M^-1s^-1 | 4 340 M^-1s^-1 | 11 300 M^-1s^-1 | 14 500 M^-1s^-1 | 268 600 M^-1s^-1 | 290 M⁻¹ s⁻¹
[Phe(2-Cl)]E[Tic]D | 5 410 M^-1s^-1 | 13 980 M^-1s^-1 | 75 860 M^-1s^-1 | 15 180 M^-1s^-1 | 16 790 M^-1s^-1 | 243 800 M^-1s^-1 | 10 040 M^-1s^-1
Phe-Leu-Thr-Asp | 460 M⁻¹ s⁻¹ | 3 050 M^-1s^-1 | 3 490 M^-1s^-1 | 450 M⁻¹ s⁻¹ | 1 190 M^-1s^-1 | 50 000 M^-1s^-1 | 450 M⁻¹ s⁻¹
Y(Me)QTD | 550 M⁻¹ s⁻¹ | 2 670 M^-1s^-1 | 8 740 M^-1s^-1 | 810 M⁻¹ s⁻¹ | 2 420 M^-1s^-1 | 105 200 M^-1s^-1 | 1 530 M^-1s^-1
Trp-Thr-ProAsp | 110 M⁻¹ s⁻¹ | 960 M⁻¹ s⁻¹ | 700 M⁻¹ s⁻¹ | 1 920 M^-1s^-1 | 3 180 M^-1s^-1 | 110 000 M^-1s^-1 | 30 M⁻¹ s⁻¹
Pro-Bip-His(Bzl)-Asp | 6 990 M^-1s^-1 | 2 750 M^-1s^-1 | 1 260 M^-1s^-1 | 590 M⁻¹ s⁻¹ | 310 M⁻¹ s⁻¹ | 13 800 M^-1s^-1 | 40 M⁻¹ s⁻¹
Y[Phe(F5)]HD | 7 300 M^-1s^-1 | 3 150 M^-1s^-1 | 8 500 M^-1s^-1 | 2 270 M^-1s^-1 | 14 900 M^-1s^-1 | 161 900 M^-1s^-1 | 210 M⁻¹ s⁻¹
Trp(Me)-Glu-His(Bzl)-Asp | 6 670 M^-1s^-1 | 7 620 M^-1s^-1 | 6 300 M^-1s^-1 | 15 800 M^-1s^-1 | 20 140 M^-1s^-1 | 623 800 M^-1s^-1 | 280 M⁻¹ s⁻¹
[Tle][Bip]HD | 8 430 M^-1s^-1 | 11 700 M^-1s^-1 | 16 920 M^-1s^-1 | 2 820 M^-1s^-1 | 5 280 M^-1s^-1 | 10 900 M^-1s^-1 | 160 M⁻¹ s⁻¹
Ile-Glu-Thr-Asp | 2 300 M^-1s^-1 | 95 400 M^-1s^-1 | 21 200 M^-1s^-1 | 1 010 M^-1s^-1 | 2 850 M^-1s^-1 | 1 430 M^-1s^-1 | 3 400 M^-1s^-1
Val-Trp-His-Asp | 8 880 M^-1s^-1 | 3 500 M^-1s^-1 | 9 980 M^-1s^-1 | 1 010 M^-1s^-1 | 60 M⁻¹ s⁻¹ | 7 700 M^-1s^-1 | 210 M⁻¹ s⁻¹
[Cha]EHD | 8 770 M^-1s^-1 and 9 270 M^-1s^-1 | 28 040 M^-1s^-1 and 27 690 M^-1s^-1 | 6 390 M^-1s^-1 and 6 530 M^-1s^-1 | 21 340 M^-1s^-1 and 25 050 M^-1s^-1 | 34 640 M^-1s^-1 and 48 140 M^-1s^-1 | 184 300 M^-1s^-1 and 113 800 M^-1s^-1 | 370 M⁻¹ s⁻¹ and 380 M⁻¹ s⁻¹
W[Tle]HD | 10 220 M^-1s^-1 | 1 240 M^-1s^-1 | 600 M⁻¹ s⁻¹ | 10 640 M^-1s^-1 | 12 930 M^-1s^-1 | 271 900 M^-1s^-1 | 40 M⁻¹ s⁻¹
Tyr-Lys-Ala-Asp | 50 M⁻¹ s⁻¹ | 210 M⁻¹ s⁻¹ | < 10 M⁻¹ s⁻¹ | 140 M⁻¹ s⁻¹ | 180 M⁻¹ s⁻¹ | 10 800 M^-1s^-1 | < 10 M⁻¹ s⁻¹
Tyr-Tyr(2,6Cl2Bzl)-His-Asp | 310 M⁻¹ s⁻¹ | 1 050 M^-1s^-1 | 1 240 M^-1s^-1 | < 10 M⁻¹ s⁻¹ | 1 560 M^-1s^-1 | 8 700 M^-1s^-1 | 50 M⁻¹ s⁻¹
